The values below come from patent US20260345624A1, “TREATMENT OF PROSTATE CANCER BY PROMOTING PDE4D7” (KONINKLIJKE PHILIPS N.V., priority 2022, published 2026).

“Also recorded” adds a separate entry of the source.

The subject of assay [1] is PDE4D7-knockdown LNCaP P1 cells. Put plainly: xCELLigence real-time proliferation of PDE4D7-knockdown P1 LNCaP cells. The assay is classed as cell-based. An excerpt:
Stable shRNA-mediated lentiviral transduced LNCaP cell lines were generated by AMSBIO (Table 1). Briefly, shRNA-PDE4D7 was cloned into a lentivector and delivered into LNCaP clone FGC cells (ATCC) via lentivirus (MOI=10). Cells were maintained in puromycin-supplemented medium prior to selection of stably transduced cells. A stable shRNA-PDE4D7 LNCaP cell line was then re-transduced with lentivirus delivering PDE4D7 to generate a re-introduced cell line. Scrambled-shRNA was used as a control. All cells were cultured in RPMI 1640 medium (Gibco D), supplemented with 10% (v/v) foetal bovine serum, 1% (v/v) L-Glutamine and 1% (v/v) penicillin/streptomycin, and stored within a 37 °C incubator with 5% CO2.
(§1) xCELLigence Real-Time Cell Analysis (RTCA)
(§2) Real-time cell growth was analysed using the xCELLigence RTCA system (Agilent), which measures real-time cell adhesion across gold microelectrode biosensors on 96 well electronic plates (E-plates) within a 37 °C incubator with 5% CO2. Cellular adhesion influences electrical impedance which is converted into the cell index (CI) via RTCA software. Initial background measurements were recorded with 100 μL RPMI 1640 medium, followed by addition of 100 μL LNCaP cell suspension (10,000 cells/wells) for measurement of CI over time. Approximately 24 h after seeding, cells were treated with specified concentrations of drugs. Negative controls containing either 0.1% DMSO or untreated cells were also included. CI was transformed to normalised CI via the RTCA software to timepoint of treatment.

A further assay deals with P1-TET4D7 LNCaP cells. Description: Real-time growth of P1 LNCaP cells with Tet-On inducible PDE4D7. It is filed as cell-based. The note with it: enzalutamide 10 μM, Tet-On doxycycline-induced PDE4D7. As to the method: as §1, §2
PDE4D7 (GenBank ID AF536976) sequence was first subcloned into lentivirus vectors with CMV (LVR-1001-pLV-CMV-PGK-Puro) and then into Tet-On inducible vector pLV-tet-on-3G-P2A-Puro, LNCaP-shRNA P1 cells were maintained in RPMI1640 medium supplemented with 10% (v/v) foetal bovine serum, 1% (v/v) L-Glutamine and 1% (v/v) penicillin/streptomycin, and infected with Tet-On inducible lentivirus at MOI=5-10 in the presence of 8 μg/ml polybrene. […]

The next assay deals with LNCaP WT cells. Description: xCELLigence real-time proliferation of WT LNCaP cells. The assay is classed as cell-based. The note with it: for WT LNCaP growth, strongest effect: enzalutamide 1 μM and above; for WT LNCaP cell proliferation: enzalutamide 0.1-30 μM, all concentrations tested. The protocol: as §1, §2
Another assay has as its system cAMP production. The note with it: Miller et al., 2013; cited from earlier work.
In a further assay the test system is PCa. As to conditions: He et al., 2019; cited from earlier work.

Regarding `CNC(=O)c1ccc(N2C(=S)N(c3ccc(C#N)c(C(F)(F)F)c3)C(=O)C2(C)C)cc1F` [enzalutamide], the “P1 LNCaP growth vs DMSO control” value in assay [1] (enzalutamide, higher concentrations up to 30 μM) is reported as “significantly enhanced growth; also recorded: increased growth at higher concentrations”. The “P1 LNCaP proliferation” value in assay [1] (enzalutamide, increasing doses 0-30 μM) is recorded as “minimal reductions in cell proliferation”. Further, the “resistance to enzalutamide upon PDE4D7 knockdown” value in assay [1] (overall conclusion, 0-30 μM) is given as “confers resistance to anti-androgens such as enzalutamide”. For the same compound, the “sensitivity to enzalutamide upon PDE4D7 re-expression” value in the assay on P1-TET4D7 LNCaP cells is given as “restored sensitivity to enzalutamide; also recorded: rescued upon PDE4D7 re-expression”. In the assay on LNCaP WT cells, the “WT LNCaP growth, strongest effect” value is listed as “least growth” and the “WT LNCaP cell proliferation” value is “significant decrease in WT LNCaP cell proliferation”. Further, in the assay on LNCaP WT cells (listed as Enzalutamide), the “WT LNCaP growth, strongest effect” value is “most profound effects” and the “WT LNCaP cell proliferation” value is given as “significant decrease in WT LNCaP cell proliferation at all concentrations tested”.
As to `CN(C)C(=N)N=C(N)N` [metformin, Metformin], the cAMP production result in the assay with cAMP production is given as “decrease CAMP production”. Besides, the “growth inhibition of P1 cells” value in assay [1] (metformin, only at highest concentrations tested (0-25 μM)) is given as “significant inhibition was only observed in P1 cells at highest concentrations tested”. Moreover, in assay [1] (summary statement, WT vs P1), the “growth inhibition independent of PDE4D7 expression, P1” value is given as “reduce tumor growth independent of PDE4D7 expression levels; also recorded: inhibit LNCaP cell growth irrespective of PDE4D7 expression status”. Besides, in the assay with PCa, the “overall survival/time to recurrence in PCa” value is reported as “enhance overall survival/time to recurrence” and the “treatment/reduction of PCa tumours” value is listed as “no evidence of it treating/reducing the PCa tumours itself”. Also, the “growth of WT cells” value in the assay on LNCaP WT cells (metformin, all concentrations (0-25 μM)) is on record as “significantly reducing growth of WT cells at all concentrations”. For the same compound, the “growth inhibition independent of PDE4D7 expression, WT” value in the assay on LNCaP WT cells (summary statement, WT vs P1) is “reduce tumor growth independent of PDE4D7 expression levels; also recorded: inhibit LNCaP cell growth irrespective of PDE4D7 expression status”.
